Counter-ions that a name gives are not always drawn.

T1 sequence (Q9HBA0 whole entry): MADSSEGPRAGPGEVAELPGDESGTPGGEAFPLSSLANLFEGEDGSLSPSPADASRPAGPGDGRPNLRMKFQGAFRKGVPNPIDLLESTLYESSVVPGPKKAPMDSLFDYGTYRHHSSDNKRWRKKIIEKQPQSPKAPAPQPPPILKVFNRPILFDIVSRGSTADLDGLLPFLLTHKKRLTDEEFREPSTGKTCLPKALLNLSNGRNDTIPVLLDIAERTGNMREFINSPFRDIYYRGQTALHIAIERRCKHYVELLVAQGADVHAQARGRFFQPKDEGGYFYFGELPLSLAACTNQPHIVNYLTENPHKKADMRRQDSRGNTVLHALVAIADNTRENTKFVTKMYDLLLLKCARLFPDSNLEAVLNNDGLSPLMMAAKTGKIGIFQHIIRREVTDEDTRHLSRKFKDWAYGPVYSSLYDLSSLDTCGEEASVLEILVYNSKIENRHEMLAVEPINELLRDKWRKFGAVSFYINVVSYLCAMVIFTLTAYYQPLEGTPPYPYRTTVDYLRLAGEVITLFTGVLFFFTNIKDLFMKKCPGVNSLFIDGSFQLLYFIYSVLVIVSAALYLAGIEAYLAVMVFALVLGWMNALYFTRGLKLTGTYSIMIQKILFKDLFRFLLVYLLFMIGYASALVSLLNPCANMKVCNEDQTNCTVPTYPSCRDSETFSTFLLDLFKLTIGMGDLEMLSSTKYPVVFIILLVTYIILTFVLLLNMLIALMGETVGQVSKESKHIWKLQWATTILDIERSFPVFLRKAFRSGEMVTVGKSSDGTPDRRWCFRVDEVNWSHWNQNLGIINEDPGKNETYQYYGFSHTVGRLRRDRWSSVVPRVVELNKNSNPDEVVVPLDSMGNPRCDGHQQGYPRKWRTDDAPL

One assay concerns the target T1, human TRPV4 (Homo sapiens, UniProt Q9HBA0).
T1 construct: expressed in transfected cells; host or cells: BHK/AC9 cells transduced with BacMam virus
Description: FLIPR assay for hTRPV4 expressed in BHK cells: inhibition of Agonist Compound-induced calcium signal. The class given is cell-based.
Conditions: not given
The method, then:
FLIPR Assay for hTRPV4 Expressed in BHK Cells:
TRPV4 channel activation results in an influx of divalent and monovalent cations including calcium. The resulting changes in intracellular calcium were monitored using a calcium specific fluorescent dye Fluo-4 (MDS Analytical Technologies). BHK/AC9 cells transduced with BacMam virus expressing the human TRPV4 gene at a MOI of 78 were plated in a 384 well poly-D lysine coated plate (15,000 cells/well in 50 μL culture medium containing DMEM/F12 with 15 mM HEPES, 10% FBS, 1% Penicillin-Streptomycin and 1% L-glutamine). Cells were incubated for 24 hours at 37° C. and 5% CO2. Culture medium was then aspirated using a Tecan plate-washer and replaced with 20 μL/well of dye loading buffer: HBSS, 500 μM Brilliant Black (MDS Analytical Technologies), and 2 μM Fluo-4 AM. Dye loaded plates were then incubated in the dark at room temperature for 1-1.5 hours.
As a reminder, the IC50 is the concentration that gives 50% inhibition. Consider `C[C@H](O)[C@]1(O)CN(S(=O)(=O)c2ccc(Cl)cn2)C[C@@H]1Oc1ccc(C#N)c(F)c1` [Example 191], for which the IC50 fell in the range of 100 to 1000 nM.

Still in this assay, the particulars now being: hTRPV4 in BHK/AC9 cells, FLIPR calcium signal, agonist at EC80; reported as range class; read-out: IC50.
Turning to `N#Cc1ccc(O[C@H]2CN(S(=O)(=O)c3ccc(C#Cc4ccccc4)cn3)C[C@@]2(O)CO)cc1F` [Example 230, 2-fluoro-4-(((3S,4R)-4-hydroxy-4-(hydroxymethyl)-1-((5-(phenylethynyl)pyridin-2-yl)sulfonyl)pyrrolidin-3-yl)oxy)benzonitrile], the IC50 lay in the range of 0.1 to 10 nM. In the case of `N#CCc1ccc(O[C@H]2CN(S(=O)(=O)c3ccc(C(F)(F)F)cc3C#N)C[C@@]2(O)CO)cc1` [Example 32, 2-(((3R,4S)-4-(4-(cyanomethyl)phenoxy)-3-hydroxy-3-(hydroxymethyl)pyrrolidin-1-yl)sulfonyl)-5-(trifluoromethyl)benzonitrile], the IC50 lay within 10 to 100 nM. As for `C[C@@H](O)[C@]1(O)CN(S(=O)(=O)c2ccc(C(F)F)nc2)C[C@@H]1Oc1ccc(C#N)c(F)c1` [Example 212, 4-(((3S,4R)-1-((6-(difluoromethyl)pyridin-3-yl)sulfonyl)-4-hydroxy-4-((R)-1-hydroxyethyl)pyrrolidin-3-yl)oxy)-2-fluorobenzonitrile], the IC50 was in the range of 10 to 100 nM. On the same count and under the same terms, the result for `N#Cc1cc(C(F)(F)F)ccc1S(=O)(=O)N1C[C@H](Oc2cc(F)c(F)cc2F)[C@](O)(CO)C1` [Example 27, 2-(((3R,4S)-3-hydroxy-3-(hydroxymethyl)-4-(2,4,5-trifluorophenoxy)pyrrolidin-1-yl)sulfonyl)-5-(trifluoromethyl)benzonitrile] reads 0.1 to 10 nM. As to `N#Cc1ccc(O[C@H]2CN(S(=O)(=O)c3ccc(C(F)(F)F)nc3)C[C@@]2(O)CN)cc1F` [Example 245, 4-(((3S,4S)-4-(aminomethyl)-4-hydroxy-1-((6-(trifluoromethyl)pyridin-3-yl)sulfonyl)pyrrolidin-3-yl)oxy)-2-fluorobenzonitrile, Hydrochloride], the IC50 was 10 to 100 nM. Still for that read-out and setting: next, `N#Cc1ccc(O[C@H]2CN(S(=O)(=O)c3cccnc3OC(F)F)C[C@@]2(O)CO)cc1F` [Example 122, 4-(((3S,4R)-1-((2-(difluoromethoxy)pyridin-3-yl)sulfonyl)-4-hydroxy-4-(hydroxymethyl)pyrrolidin-3-yl)oxy)-2-fluorobenzonitrile]: 0.1 to 10 nM.

`N#Cc1ccc(O[C@H]2CN(S(=O)(=O)c3ccc(Cl)c(OC(F)(F)F)c3)C[C@@]2(O)CO)cc1F` [Example 129, 4-(((3S,4R)-1-((4-chloro-3-(trifluoromethoxy)phenyl)sulfonyl)-4-hydroxy-4-(hydroxymethyl)pyrrolidin-3-yl)oxy)-2-fluorobenzonitrile]: the IC50 lay within 10 to 100 nM. Consider `C[C@@H](O)[C@]1(O)CN(S(=O)(=O)c2ccc(I)cc2)C[C@@H]1Oc1ccc(C#N)c(F)c1` [Example 209, 2-fluoro-4-(((3S,4R)-4-hydroxy-4-((R)-1-hydroxyethyl)-1-((4-iodophenyl)sulfonyl)pyrrolidin-3-yl)oxy)benzonitrile], for which the IC50 is 0.1 to 10 nM. In the case of `N#Cc1ccc(S(=O)(=O)N2C[C@H](Oc3cc(F)c(C#N)cc3F)[C@](O)(CO)C2)cn1` [Example 82, 5-(((3R,4S)-4-(4-cyano-2,5-difluorophenoxy)-3-hydroxy-3-(hydroxymethyl)pyrrolidin-1-yl)sulfonyl)picolinonitrile], the IC50 is 10 to 100 nM. Take `N#Cc1ccc(O[C@H]2CN(S(=O)(=O)c3ccc(C#CC4CC4)nc3)C[C@@]2(O)CO)cc1F` [Example 226, 4-(((3S,4R)-1-((6-(cyclopropylethynyl)pyridin-3-yl)sulfonyl)-4-hydroxy-4-(hydroxymethyl)pyrrolidin-3-yl)oxy)-2-fluorobenzonitrile]: the IC50 was 10 to 100 nM. Consider `Cc1ccc(S(=O)(=O)N2C[C@H](Oc3ccc(C#N)nc3)[C@](O)(CO)C2)c(Cl)c1` [Example 75, 5-(((3S,4R)-1-((2-chloro-4-methylphenyl)sulfonyl)-4-hydroxy-4-(hydroxymethyl)pyrrolidin-3-yl)oxy)picolinonitrile], for which the IC50 is 10 to 100 nM. With `N#Cc1ccc(O[C@H]2CN(S(=O)(=O)c3ccc(Cl)cn3)C[C@@]2(O)CO)c(OCC(F)(F)F)c1` [Example 186, 4-(((3S,4R)-1-((5-chloropyridin-2-yl)sulfonyl)-4-hydroxy-4-(hydroxymethyl)pyrrolidin-3-yl)oxy)-3-(2,2,2-trifluoroethoxy) benzonitrile], the IC50 lay within 10 to 100 nM. Take `N#Cc1ccc(O[C@H]2CN(S(=O)(=O)c3ccc(C(F)(F)F)cc3C#N)C[C@@]2(O)CO)c(F)c1` [Example 9, 2-(((3R,4S)-4-(4-cyano-2-fluorophenoxy)-3-hydroxy-3-(hydroxymethyl)pyrrolidin-1-yl)sulfonyl)-5-(trifluoromethyl)benzonitrile]: the IC50 lay within 0.1 to 10 nM. The same measure, in the same setting: the result for `Cc1ccc(O[C@H]2CN(S(=O)(=O)c3ccc(C(F)(F)F)cc3C#N)C[C@@]2(O)CO)cc1` [Example 51, 2-(((3R,4S)-3-hydroxy-3-(hydroxymethyl)-4-(p-tolyloxy)pyrrolidin-1-yl)sulfonyl)-5-(trifluoromethyl)benzonitrile] reads 10 to 100 nM; that for `N#Cc1ccc(O[C@H]2CN(S(=O)(=O)c3ccc(Cl)cn3)C[C@@]2(O)CN)cc1` [Example 246, 4-(((3S,4S)-4-(aminomethyl)-1-((5-chloropyridin-2-yl)sulfonyl)-4-hydroxpyrrolidin-3-yl)oxy)benzonitrile], 10 to 100 nM; that for `N#Cc1cc(OCc2ccccc2)c(O[C@H]2CN(S(=O)(=O)c3ccc(C(F)(F)F)cc3C#N)C[C@@]2(O)CO)cc1F` [Example 163, 5-(benzyloxy)-4-(((3S,4R)-1-((2-cyano-4-(trifluoromethyl)phenyl)sulfonyl)-4-hydroxy-4-(hydroxymethyl)pyrrolidin-3-yl)oxy)-2-fluorobenzonitrile], 0.1 to 10 nM. As for `CCOc1cc(C#N)c(F)cc1O[C@H]1CN(S(=O)(=O)c2ccc(C(F)(F)F)cc2C#N)C[C@@]1(O)CO` [Example 159, 4-(((3S,4R)-1-((2-cyano-4-(trifluoromethyl)phenyl)sulfonyl)-4-hydroxy-4-(hydroxymethyl)pyrrolidin-3-yl)oxy)-5-ethoxy-2-fluorobenzonitrile], the IC50 was 0.1 to 10 nM. Regarding `N#Cc1ccc(O[C@H]2CN(S(=O)(=O)c3ccc(Cl)cc3C#N)C[C@@]2(O)CO)cc1F` [Example 3, 4-(((3S,4R)-1-((4-chloro-2-cyanophenyl)sulfonyl)-4-hydroxy-4-(hydroxymethyl)pyrrolidin-3-yl)oxy)-2-fluorobenzonitrile], the IC50 was 0.1 to 10 nM. Still for that read-out and setting: the result for `C[C@H](O)[C@]1(O)CN(S(=O)(=O)c2cccnc2C#N)C[C@@H]1Oc1ccc(C#N)c(F)c1` [Example 203, 3-(((3R,4S)-4-(4-cyano-3-fluorophenoxy)-3-hydroxy-3-((S)-1-hydroxyethyl)pyrrolidin-1-yl)sulfonyl) picolinonitrile] reads 10 to 100 nM. Still for that read-out and setting: the result for `N#Cc1cc(C(F)(F)F)ccc1S(=O)(=O)N1C[C@H](Oc2ccc(F)c(F)c2F)[C@](O)(CO)C1` [Example 28, 2-(((3R,4S)-3-hydroxy-3-(hydroxymethyl)-4-(2,3,4-trifluorophenoxy)pyrrolidin-1-yl)sulfonyl)-5-(trifluoromethyl)benzonitrile] reads 10 to 100 nM. Regarding `N#Cc1ccc(O[C@H]2CN(S(=O)(=O)c3ccc(Cl)cc3C#N)C[C@@]23CNCCO3)cc1F` [compound 253], the IC50 lay in the range of 0.1 to 10 nM. In the case of `N#Cc1ccc(O[C@H]2CN(S(=O)(=O)c3ccc(Cl)cc3Cl)C[C@@]2(O)CO)cc1F` [Example 2, 4-(((3S,4R)-1-((2,4-dichlorophenyl)sulfonyl)-4-hydroxy-4-(hydroxymethyl)pyrrolidin-3-yl)oxy)-2-fluorobenzonitrile], the IC50 lay in the range of 0.1 to 10 nM. With `C#Cc1ccc(S(=O)(=O)N2C[C@H](Oc3ccc(C#N)c(F)c3)[C@](O)(CO)C2)c(C#N)c1` [Example 220, 4-(((3S,4R)-1-((2-cyano-4-ethynylphenyl)sulfonyl)-4-hydroxy-4-(hydroxymethyl)pyrrolidin-3-yl)oxy)-2-fluorobenzonitrile], the IC50 was 0.1 to 10 nM. For `CC(C)COc1cc(C#N)c(F)cc1O[C@H]1CN(S(=O)(=O)c2ccc(C(F)(F)F)cc2)C[C@@]1(O)CO` [Example 182, 2-fluoro-4-(((3S,4R)-4-hydroxy-4-(hydroxymethyl)-1-((4-(trifluoromethyl)phenyl)sulfonyl)pyrrolidin-3-yl)oxy)-5-isobutoxybenzonitrile], the half-inhibitory concentration (IC50) was in the range of 10 to 100 nM.

Consider `N#Cc1cc(OCC(F)(F)F)c(O[C@H]2CN(S(=O)(=O)c3ccc(Cl)cn3)C[C@@]2(O)CO)cc1F` [Example 187, 4-(((3S,4R)-1-((5-chloropyridin-2-yl)sulfonyl)-4-hydroxy-4-(hydroxymethyl)pyrrolidin-3-yl)oxy)-2-fluoro-5-(2,2,2-trifluoroethoxy) benzonitrile], for which the IC50 fell in the range of 0.1 to 10 nM.

As for `N#Cc1ccc(O[C@H]2CN(S(=O)(=O)c3cccc(Cl)c3C#N)C[C@@]2(O)CO)cc1F` [Example 95, 4-(((3S,4R)-1-((3-chloro-2-cyanophenyl)sulfonyl)-4-hydroxy-4-(hydroxymethyl)pyrrolidin-3-yl)oxy)-2-fluorobenzonitrile], the IC50 lay in the range of 0.1 to 10 nM. Take `N#Cc1ccc(O[C@H]2CN(S(=O)(=O)c3ccc(C(F)(F)F)cc3)C[C@@]2(O)CO)cc1F` [Example 70, 2-fluoro-4-(((3S,4R)-4-hydroxy-4-(hydroxymethyl)-1-((4-(trifluoromethyl)phenyl)sulfonyl)pyrrolidin-3-yl)oxy)benzonitrile]: the IC50 fell in the range of 10 to 100 nM.

The values above are taken from patent publication US11229623B2 (GlaxoSmithKline Intellectual Property (No.2) Limited, priority 2016, dated 2022).
